According to PubChem BioAssay AID256 (DTP/NCI, 2004):
Values joined by “and” are separate entries in the source; they are usually repeats but may differ in a detail not shown here. Equal entries are not always repeated. Toxic doses and inconclusive results are not listed. The calls were made as follows: active = survival T/C of 150% or more; inactive = T/C below 125% in these data.

Test system: CD2F1 mice, L1210 leukemia ip, survival T/C
Assay: NCI In Vivo Anticancer Drug Screen. Data for tumor model L1210 Leukemia (intraperitoneal) in CD2F1 (CDF1) mice
Conditions: higher = longer survival
Outline: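 Tumor-bearing mice (transplanted tumor) were split into treated and vehicle control groups, and the measured endpoint of each treated group was divided by that of its vehicle controls.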

[1] = endpoint: mean survival time, dose: 75.0 mg/kg/injection, schedule: Q01DX001 (ip), vehicle: saline
[2] = endpoint: mean survival time, dose: 100.0 mg/kg/injection, schedule: Q04DX003 (ip), vehicle: saline with Tween-80
[3] = endpoint: mean survival time, dose: 25.0 mg/kg/injection, schedule: Q04DX003 (ip), vehicle: water
[4] = endpoint: mean survival time, dose: 50.0 mg/kg/injection, schedule: Q04DX003 (ip), vehicle: water
[5] = endpoint: mean survival time, dose: 100.0 mg/kg/injection, schedule: Q04DX003 (ip), vehicle: water
[6] = endpoint: mean survival time, dose: 200.0 mg/kg/injection, schedule: Q04DX003 (ip), vehicle: water
[7] = endpoint: mean survival time, dose: 200.0 mg/kg/injection, schedule: Q04DX003 (ip), vehicle: saline with Tween-80
[8] = endpoint: mean survival time, dose: 400.0 mg/kg/injection, schedule: Q04DX003 (ip), vehicle: saline with Tween-80

Measured: T/C

NCC1CCCC1N (stereo unspecified)
inactive: endpoint: mean survival time, dose: 18.8 mg/kg/injection, schedule: Q01DX001 (ip), vehicle: saline 114 % of control | endpoint: mean survival time, dose: 18.8 mg/kg/injection, schedule: Q04DX003 (ip), vehicle: saline 101 % of control | endpoint: mean survival time, dose: 37.5 mg/kg/injection, schedule: Q01DX001 (ip), vehicle: saline 108 % of control | endpoint: mean survival time, dose: 37.5 mg/kg/injection, schedule: Q04DX003 (ip), vehicle: saline 101 % of control | [1] 103 % of control | endpoint: mean survival time, dose: 75.0 mg/kg/injection, schedule: Q04DX003 (ip), vehicle: saline 104 % of control

NC(CSS(=O)(=O)O)=NCc1cccs1
inactive: endpoint: mean survival time, dose: 25.0 mg/kg/injection, schedule: Q04DX002 (ip), vehicle: saline with Tween-80 95 % of control | endpoint: mean survival time, dose: 50.0 mg/kg/injection, schedule: Q04DX002 (ip), vehicle: saline with Tween-80 115 % of control

Cc1cscc(C)c1=S
inactive: endpoint: mean survival time, dose: 100.0 mg/kg/injection, schedule: Q04DX003 (ip), vehicle: saline sonified 98 % of control | endpoint: mean survival time, dose: 200.0 mg/kg/injection, schedule: Q04DX003 (ip), vehicle: saline sonified 98 % of control | endpoint: mean survival time, dose: 400.0 mg/kg/injection, schedule: Q04DX003 (ip), vehicle: saline sonified 100 % of control

Cc1cc(=O)[nH]c2[nH]c(=O)ccc12
inactive: endpoint: mean survival time, dose: 100.0 mg/kg/injection, schedule: Q01DX001 (ip), vehicle: saline 100 % of control | endpoint: mean survival time, dose: 200.0 mg/kg/injection, schedule: Q01DX001 (ip), vehicle: saline 96 % of control | endpoint: mean survival time, dose: 400.0 mg/kg/injection, schedule: Q01DX001 (ip), vehicle: saline 96 % of control

CC(C)C(C=O)C(O)(C(F)(F)F)C(F)(F)Cl (stereo unspecified)
inactive: [2] 91 % of control

CN(C)N=Nc1cc(C#N)cc(C#N)c1
inactive: endpoint: mean survival time, dose: 79.0 mg/kg/injection, schedule: Q01DX009 (ip), vehicle: Klucel (hydroxypropylcellulose) (HPC) 110 % of control | endpoint: mean survival time, dose: 118.0 mg/kg/injection, schedule: Q01DX009 (ip), vehicle: Klucel (hydroxypropylcellulose) (HPC) 110 % of control | endpoint: mean survival time, dose: 177.0 mg/kg/injection, schedule: Q01DX009 (ip), vehicle: Klucel (hydroxypropylcellulose) (HPC) 119 % of control | endpoint: mean survival time, dose: 266.0 mg/kg/injection, schedule: Q01DX009 (ip), vehicle: Klucel (hydroxypropylcellulose) (HPC) 113 % of control | endpoint: mean survival time, dose: 400.0 mg/kg/injection, schedule: Q01DX009 (ip), vehicle: Klucel (hydroxypropylcellulose) (HPC) 89 % of control

NC1=Nc2ccccc2CS1
inactive: endpoint: mean survival time, dose: 9.4 mg/kg/injection, schedule: Q01DX009 (ip), vehicle: saline 95 % of control | endpoint: mean survival time, dose: 18.8 mg/kg/injection, schedule: Q01DX009 (ip), vehicle: saline 107 % of control | endpoint: mean survival time, dose: 37.5 mg/kg/injection, schedule: Q01DX009 (ip), vehicle: saline 89 % of control | [1] 98 % of control

COc1cccc(C(=O)C=C(C(F)(F)F)C(F)(F)F)c1
inactive: endpoint: mean survival time, dose: 12.5 mg/kg/injection, schedule: Q01DX009 (ip), vehicle: saline with Tween-80 104 % of control | endpoint: mean survival time, dose: 25.0 mg/kg/injection, schedule: Q01DX009 (ip), vehicle: saline with Tween-80 109 % of control

OCCN(CCO)N=Nc1c(F)cc(F)cc1F
inactive: endpoint: mean survival time, dose: 25.0 mg/kg/injection, schedule: Q01DX005 (ip), vehicle: other 98 % of control | [3] 94 % of control | endpoint: mean survival time, dose: 50.0 mg/kg/injection, schedule: Q01DX005 (ip), vehicle: other 101 % of control | [4] 94 % of control | endpoint: mean survival time, dose: 100.0 mg/kg/injection, schedule: Q01DX005 (ip), vehicle: other 101 % of control | [5] 97 % of control | endpoint: mean survival time, dose: 200.0 mg/kg/injection, schedule: Q01DX005 (ip), vehicle: other 102 % of control | [6] 97 % of control | endpoint: mean survival time, dose: 400.0 mg/kg/injection, schedule: Q01DX005 (ip), vehicle: other 112 % of control | endpoint: mean survival time, dose: 400.0 mg/kg/injection, schedule: Q04DX003 (ip), vehicle: water 100 % of control

COc1ccc2nc3cc(Cl)ccc3c(N)c2c1
inactive: endpoint: mean survival time, dose: 2.5 mg/kg/injection, schedule: Q01DX009 (ip), vehicle: Klucel (hydroxypropylcellulose) (HPC) 110 % of control | endpoint: mean survival time, dose: 5.0 mg/kg/injection, schedule: Q01DX009 (ip), vehicle: Klucel (hydroxypropylcellulose) (HPC) 103 % of control | endpoint: mean survival time, dose: 10.0 mg/kg/injection, schedule: Q01DX009 (ip), vehicle: Klucel (hydroxypropylcellulose) (HPC) 98 % of control

O=C(O)C(Br)(Br)Br.[Ag]
inactive: [2] 92 % of control | [7] 89 % of control | [8] 97 % of control

C=C1C(O)CC2CC1C2(C)C (stereo unspecified)
inactive: endpoint: mean survival time, dose: 50.0 mg/kg/injection, schedule: Q01DX009 (ip), vehicle: saline with Tween-80 98 % of control

Clc1ccc(N=Nc2ccc(Cl)cc2)cc1
inactive: endpoint: mean survival time, dose: 25.0 mg/kg/injection, schedule: Q04DX003 (ip), vehicle: saline with Tween-80 95 % of control | endpoint: mean survival time, dose: 50.0 mg/kg/injection, schedule: Q04DX003 (ip), vehicle: saline with Tween-80 95 % of control | [2] 92 % of control

CCCC1C(=O)N2C(N(C)C)=Nc3ccc(C)cc3N2C1=O (stereo unspecified)
inactive: [2] 94 % of control | [7] 96 % of control | [8] 96 % of control

[Cl][Pt][Cl].[NH-]CC[NH-].[NH-]CC[NH-]
inactive: endpoint: mean survival time, dose: 12.5 mg/kg/injection, schedule: Q04DX003 (ip), vehicle: water 92 % of control and 100 % of control and 95 % of control | [3] 88 % of control and 89 % of control and 100 % of control | [4] 95 % of control and 97 % of control | [5] 90 % of control and 91 % of control and 95 % of control | [6] 95 % of control and 93 % of control

NCCCOCCOCCOCCOCCCN
inactive: endpoint: mean survival time, dose: 25.0 mg/kg/injection, schedule: Q04DX002 (ip), vehicle: saline 105 % of control | endpoint: mean survival time, dose: 50.0 mg/kg/injection, schedule: Q04DX002 (ip), vehicle: saline 101 % of control | endpoint: mean survival time, dose: 100.0 mg/kg/injection, schedule: Q01DX001 (ip), vehicle: saline sonified 97 % of control | endpoint: mean survival time, dose: 100.0 mg/kg/injection, schedule: Q04DX002 (ip), vehicle: saline 101 % of control

Cc1cc(N)c(S(=O)(=O)NO)cc1Cl
inactive: endpoint: mean survival time, dose: 100.0 mg/kg/injection, schedule: Q01DX001 (ip), vehicle: saline with Tween-80 96 % of control | endpoint: mean survival time, dose: 200.0 mg/kg/injection, schedule: Q01DX001 (ip), vehicle: saline with Tween-80 96 % of control | endpoint: mean survival time, dose: 400.0 mg/kg/injection, schedule: Q01DX001 (ip), vehicle: saline with Tween-80 102 % of control

C1CCC2[N-]CCCC2C1.C1CCC2[N-]CCCC2C1.[Br][Pt+2][Br] (stereo unspecified)
inactive: endpoint: median survival time, dose: 3.12 mg/kg/injection, schedule: Q04DX003 (ip), vehicle: saline 105 % of control | endpoint: median survival time, dose: 6.25 mg/kg/injection, schedule: Q04DX003 (ip), vehicle: saline 117 % of control | endpoint: median survival time, dose: 12.5 mg/kg/injection, schedule: Q04DX003 (ip), vehicle: saline 114 % of control | endpoint: median survival time, dose: 25.0 mg/kg/injection, schedule: Q04DX003 (ip), vehicle: saline 103 % of control | endpoint: median survival time, dose: 50.0 mg/kg/injection, schedule: Q04DX003 (ip), vehicle: saline 102 % of control | endpoint: median survival time, dose: 100.0 mg/kg/injection, schedule: Q04DX003 (ip), vehicle: saline 104 % of control | endpoint: median survival time, dose: 200.0 mg/kg/injection, schedule: Q04DX003 (ip), vehicle: saline 95 % of control

CC(O)(CCCCCCCC(C)(O)c1ccccc1)c1ccccc1 (stereo unspecified)
inactive: [2] 113 % of control | [7] 103 % of control | [8] 88 % of control
